Entries after “also recorded” stand apart in the source; their conditions may differ.
Columns and labels:
[1] = test system: lettuce; test: Size of roots and leaves of harvested lettuce; format: in vivo; conditions: for Leaves (each) Width: control 3-5 cm; for Root (as a whole) Width: control 6 cm; for Root (as a whole) Length: control 8 cm; for Leaves (each) Length: control 20-21 cm; for Size of roots and leaves / plant growth compared with control: approximately eight weeks (two months) after sowing
Source text: A commercial plant box as shown in FIG. 1A was used for the experiment. The bottom one half was filled with sandbox sand, and the top layer was filled with six inches of non-fertilized soil. The level of the soil was four inches below the top of the container. The plant box was partitioned into three sections with physical barriers in between, from the top of the soil to the bottom of the plant box, as illustrated in FIG. 1B.
A single straight line of 0.25-inch-deep trough was formed in each section. Then, lettuce seeds were placed in the trough according to the methods laid out in Table 1 below. Each section was watered daily with tap water.
Approximately eight weeks after sowing, a portion of each group was harvested, and size of the roots and leaves of the harvested lettuce was measured, as summarized in Table 3 below.

[2] = test system: pink azaleas; test: Flowering and sprouting of pink azaleas; format: in vivo, pink azalea
Source text: In the experimental plant, small amount of PCA crystals were placed around the stem, and both plants were watered daily.

[3] = test system: lettuce; test: Remaining lettuce observed until final harvest (wilting, size, pest holes); format: in vivo; conditions: approximately 14 weeks after sowing
[4] = test system: red azaleas; test: Flowering of red azaleas; format: in vivo, azalea (red bird variety); conditions: small amount of PCA crystals around the stem
Source text: In one of the two azalea plants (red bird variety), small amount of PCA crystals were placed around the stem, and both were watered daily. The plant treated with PCA bloomed in three weeks, and the other plant bloomed in seven weeks.

[5] = test system: lettuce; test: Browning of harvested and cut lettuce; format: in vivo
Source text: Browning of the lettuce harvested at approximately eight weeks after sowing were examined for experimental groups 2 and 3. The cut end of the stalk and the cut area on the leaves were observed. First browning appeared on the cut end six days after harvesting and cutting.

[6] = test system: rice; conditions: had been reported; cited from earlier work
[7] = approximately eight weeks after sowing

| SMILES | Shape of root and leaves compared with other groups [1, 7] | Leaves (each) Width [1, 7] | Root (as a whole) Width [1, 7] | Root (as a whole) Length [1, 7] | Leaves (each) Length [1, 7] | Blooming compared with control plant ([2]; approximately five weeks after placing PCA crystals around the stem) | Flowering, buds and shoots compared with control plant ([2]; approximately seven weeks after placing PCA crystals, control wilted) | Buds compared with control plant ([2]; approximately six weeks after placing PCA crystals) | Overall flowering, sprouting and budding compared with control ([2]; summary) | Size of roots and leaves / plant growth compared with control [1] | Size of leaves and roots at final harvest, group 3 versus group 2 [3] | Speed of flowering compared with untreated plant [4] | Time to bloom ([4]; watered daily, untreated plant seven weeks) | Time to first browning on the cut end after harvesting and cutting ([5]; lettuce harvested approximately eight weeks after sowing) | Browning in the cut areas of the leaves ([5]; six days after cutting) | Browning on cut end of the stalk compared with control ([5]; six days after harvesting and cutting) | Effect on growth of some plant species, e.g., rice [6] |
| --- | --- | --- | --- | --- | --- | --- | --- | --- | --- | --- | --- | --- | --- | --- | --- | --- | --- |
| O=C(O)c1ccc(O)c(O)c1 [PCA coating, protocatechuic acid] | the root was relatively narrower, and the leaves were relatively wider and shorter; also recorded: a different shaped single root | 4-7 cm | 3-5 cm | 8-11 cm | 17-18 cm | – | – | – | – | – | – | – | – | – | – | – | – |
| O=C(O)c1ccc(O)c(O)c1 [PCA crystals, protocatechuic acid] | – | 4-6 cm | 9 cm | 10 cm | 24 cm | started to bloom before the control plant did, and had more flowers blooming than the control plant | continued to flower and had more buds and taller shoot of stems than the control | had many more buds on the top yet to flower | flowered sooner, added sprouts sooner, and had budding that lasted longer than the control | bigger roots and leaves than the control | larger and wider leaves and larger roots than experimental group 2 | more than twice as fast | three | six | no browning was observed; also recorded: no browning was seen where leaves were cut | not as thick as in the control group; also recorded: did not show thick brown covering on the stump | – |
| O=C(O)c1ccc(O)c(O)c1 [PCA, protocatechuic acid] | – | – | – | – | – | – | – | – | – | enhanced plant growth; larger root system and larger leaves than the control | – | – | – | – | – | – | no effect on growth |
